According to patent US9695155B2, “Herbicidal substituted pyrimidinyloxy benzene compounds” (E. I. DU PONT DE NEMOURS AND COMPANY, priority 2013, dated 2017):

Key:
bromegrass, downy = assay: Test D postemergence; assay type: in vivo, Bromus tectorum; details: Bromus tectorum, post-emergence, Postemergence, scale 0 to 100 (0 no effect, 100 complete control), read-out: Plant response rating, Bromegrass, Downy
How it was run: (§1)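 Plant response is a visual score from 0 (no effect) to 100 (complete control) relative to controls. Plants were kept in a controlled growth environment for 7 to 21 days after spraying. Preemergence treatments went onto silt loam soil; postemergence ones onto 1- to 4-leaf seedlings.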

wild buckwheat = assay: Test D postemergence; assay type: in vivo, Polygonum convolvulus; details: Fallopia convolvulus, post-emergence, Postemergence, scale 0 to 100 (0 no effect, 100 complete control), read-out: Plant response rating, Buckwheat, Wild
How it was run: as §1

galium = assay: Test D postemergence; assay type: in vivo, Galium aparine; details: Galium, post-emergence
How it was run: as §1

kochia = assay: Test D postemergence; assay type: in vivo, Kochia scoparia; details: Bassia scoparia, post-emergence
How it was run: as §1

cocklebur = assay: Test E preemergence; assay type: in vivo, Xanthium strumarium; details: 62 g ai/ha, scale 0 to 100 (0 no effect, 100 complete control)
From the text: Seeds of plant species selected from corn (Zea mays), soybean (Glycine max), velvetleaf (Abutilon theophrasti), lambsquarters (Chenopodium album), wild poinsettia (Euphorbia heterophylla), palmer pigweed (Amaranthus palmeri), waterhemp (common waterhemp, Amaranthus rudis), surinam grass (Brachiaria decumbens), large (Lg) crabgrass (Digitaria sanguinalis), Brazilian crabgrass (Digitaria horizontalis), fall panicum (Panicum dichotomiflorum), giant foxtail (Setaria faberii), green foxtail (Setaria viridis), goosegrass (Eleusine indica), johnsongrass (Sorghum halepense), ragweed (common ragweed, Ambrosia elatior), barnyardgrass (Echinochloa crus-galli), sandbur (southern sandbur, Cenchrus echinatus), arrowleaf sida (Sida rhombifolia), Italian ryegrass (Lolium multiflorum), dayflower (Virginia (VA) dayflower, Commelina virginica), field bindweed (Convolvulus arvensis), morningglory (Ipomoea coccinea), nightshade (eastern black nightshade, Solanum ptycanthum), kochia (Kochia scoparia), yellow nutsedge (Cyperus esculentus), cocklebur (common cocklebur, Xanthium strumarium), smartweed (ladysthumb smartweed, and hairy beggarticks (Bidens pilosa), were planted into a silt loam soil and treated preemergence with test chemicals formulated in a non-phytotoxic solvent mixture which included a surfactant.
At the same time, plants from these crop and weed species and also horseweed (Canada horseweed, Conyza canadensis), waterhemp_RES1, (ALS & Triazine resistant common waterhemp, Amaranthus rudis), and waterhemp_RES2, (ALS & HPPD resistant common waterhemp, Amaranthus rudis) were planted in pots containing Redi-Earth® planting medium (Scotts Company, 14111 Scottslawn Road, Marysville, Ohio 43041) comprising spaghnum peat moss, vermiculite, wetting agent and starter nutrients were treated with postemergence applications of test chemicals formulated in the same manner. Plants ranged in height from 2 to 18 cm for postemergence treatments (1- to 4-leaf stage). Treated plants and controls were maintained in a greenhouse for 14 to 21 days, after which time all species were compared to controls and visually evaluated. Plant response ratings, summarized in Table E, are based on a scale of 0 to 100 where 0 is no effect and 100 is complete control. A dash (-) response means no test result.

windgrass = assay: Test D postemergence; assay type: in vivo, Apera spica-venti; details: Apera spica-venti, post-emergence
How it was run: as §1

lambsquarters = assay: Test D postemergence; assay type: in vivo, Chenopodium album; details: Chenopodium album, post-emergence
How it was run: as §1

green foxtail = assay: Test D preemergence; assay type: in vivo, Setaria viridis; details: Setaria viridis, pre-emergence
How it was run: as §1

canarygrass = assay: Test D postemergence; assay type: in vivo, Phalaris minor; details: Phalaris minor, post-emergence
How it was run: as §1

blackgrass = assay: Test D preemergence; assay type: in vivo, Alopecurus myosuroides; details: Alopecurus myosuroides, pre-emergence
How it was run: as §1

wild mustard = assay: Test D postemergence; assay type: in vivo, Sinapis arvensis; details: Brassica, post-emergence
How it was run: as §1

chickweed = assay: Test D preemergence; assay type: in vivo, Stellaria media; details: Stellaria media, pre-emergence, scale 0-100, read-out: Plant response rating, Chickweed
How it was run: as §1

FC(F)(F)c1cnn(-c2ccccc2Oc2ncc(Br)cn2)c1 [Compound 18, 5-bromo-2-[2-[4-(trifluoromethyl)-1H-pyrazol-1-yl]phenoxy]pyrimidine]
pest or weed control at 16 g/ha (bromegrass, downy; 16 g ai/ha): 15% | pest or weed control at 31 g/ha (bromegrass, downy; 31 g ai/ha): 15% | pest or weed control at 62 g/ha (bromegrass, downy; 62 g ai/ha): 15% | pest or weed control at 125 g/ha (bromegrass, downy; 125 g ai/ha): 20% | pest or weed control at 250 g/ha (bromegrass, downy; 250 g ai/ha): 15% | pest or weed control at 16 g/ha (wild buckwheat; 16 g ai/ha): 60% | pest or weed control at 31 g/ha (wild buckwheat; 31 g ai/ha): 55% | pest or weed control at 62 g/ha (wild buckwheat; 62 g ai/ha): 70% | pest or weed control at 125 g/ha (wild buckwheat; 125 g ai/ha): 100% | pest or weed control at 250 g/ha (wild buckwheat; 250 g ai/ha): 95% | pest or weed control at 16 g/ha (galium; 16 g ai/ha, scale 0-100, read-out: Plant response rating, Galium): 40% | pest or weed control at 31 g/ha (galium; 31 g ai/ha, scale 0 to 100 (0 no effect, 100 complete control), read-out: Plant response rating, Galium): 60% | pest or weed control at 62 g/ha (galium; 62 g ai/ha, scale 0 to 100 (0 no effect, 100 complete control), read-out: Plant response rating, Galium): 70% | pest or weed control at 125 g/ha (galium; 125 g ai/ha, scale 0 to 100 (0 no effect, 100 complete control), read-out: Plant response rating, Galium): 65% | pest or weed control at 250 g/ha (galium; 250 g ai/ha, scale 0 to 100 (0 no effect, 100 complete control), read-out: Plant response rating, Galium): 70% | pest or weed control at 16 g/ha (kochia; 16 g ai/ha, scale 0-100, read-out: Plant response rating, Kochia): 35% | pest or weed control at 31 g/ha (kochia; 31 g ai/ha, scale 0 to 100 (0 no effect, 100 complete control), read-out: Plant response rating, Kochia): 85% | pest or weed control at 62 g/ha (kochia; 62 g ai/ha, scale 0 to 100 (0 no effect, 100 complete control), read-out: Plant response rating, Kochia): 90% | pest or weed control at 125 g/ha (kochia; 125 g ai/ha, scale 0 to 100 (0 no effect, 100 complete control), read-out: Plant response rating, Kochia): 100% | pest or weed control at 250 g/ha (kochia; 250 g ai/ha, scale 0 to 100 (0 no effect, 100 complete control), read-out: Plant response rating, Kochia): 100% | Cocklebur plant response rating (cocklebur): 0 | pest or weed control at 16 g/ha (windgrass; 16 g ai/ha, scale 0-100, read-out: Plant response rating, Windgrass): 5% | pest or weed control at 31 g/ha (windgrass; 31 g ai/ha, scale 0 to 100 (0 no effect, 100 complete control), read-out: Plant response rating, Windgrass): 10% | pest or weed control at 62 g/ha (windgrass; 62 g ai/ha, scale 0 to 100 (0 no effect, 100 complete control), read-out: Plant response rating, Windgrass): 10% | pest or weed control at 125 g/ha (windgrass; 125 g ai/ha, scale 0 to 100 (0 no effect, 100 complete control), read-out: Plant response rating, Windgrass): 10% | pest or weed control at 250 g/ha (windgrass; 250 g ai/ha, scale 0 to 100 (0 no effect, 100 complete control), read-out: Plant response rating, Windgrass): 10% | pest or weed control at 16 g/ha (lambsquarters; 16 g ai/ha, scale 0-100, read-out: Plant response rating, Lambsquarters): 15% | pest or weed control at 31 g/ha (lambsquarters; 31 g ai/ha, scale 0 to 100 (0 no effect, 100 complete control), read-out: Plant response rating, Lambsquarters): 50% | pest or weed control at 62 g/ha (lambsquarters; 62 g ai/ha, scale 0 to 100 (0 no effect, 100 complete control), read-out: Plant response rating, Lambsquarters): 90% | pest or weed control at 125 g/ha (lambsquarters; 125 g ai/ha, scale 0 to 100 (0 no effect, 100 complete control), read-out: Plant response rating, Lambsquarters): 95% | pest or weed control at 250 g/ha (lambsquarters; 250 g ai/ha, scale 0 to 100 (0 no effect, 100 complete control), read-out: Plant response rating, Lambsquarters): 95% | pest or weed control at 16 g/ha (green foxtail; 16 g ai/ha, scale 0 (no effect) to 100 (complete control), read-out: Plant response rating, Foxtail, Green): 5% | pest or weed control at 31 g/ha (green foxtail; 31 g ai/ha, scale 0-100, read-out: Plant response rating, Foxtail, Green): 15% | pest or weed control at 62 g/ha (green foxtail; 62 g ai/ha, scale 0-100, read-out: Plant response rating, Foxtail, Green): 50% | pest or weed control at 125 g/ha (green foxtail; 125 g ai/ha, scale 0-100, read-out: Plant response rating, Foxtail, Green): 95% | pest or weed control at 250 g/ha (green foxtail; 250 g ai/ha, scale 0-100, read-out: Plant response rating, Foxtail, Green): 100% | pest or weed control at 16 g/ha (canarygrass; 16 g ai/ha, scale 0-100, read-out: Plant response rating, Canarygrass): 10% | pest or weed control at 31 g/ha (canarygrass; 31 g ai/ha, scale 0 to 100 (0 no effect, 100 complete control), read-out: Plant response rating, Canarygrass): 15% | pest or weed control at 62 g/ha (canarygrass; 62 g ai/ha, scale 0 to 100 (0 no effect, 100 complete control), read-out: Plant response rating, Canarygrass): 15% | pest or weed control at 125 g/ha (canarygrass; 125 g ai/ha, scale 0 to 100 (0 no effect, 100 complete control), read-out: Plant response rating, Canarygrass): 20% | pest or weed control at 250 g/ha (canarygrass; 250 g ai/ha, scale 0 to 100 (0 no effect, 100 complete control), read-out: Plant response rating, Canarygrass): 35% | pest or weed control at 16 g/ha (blackgrass; 16 g ai/ha, scale 0 (no effect) to 100 (complete control), read-out: Plant response rating, Blackgrass): 0% | pest or weed control at 31 g/ha (blackgrass; 31 g ai/ha, scale 0-100, read-out: Plant response rating, Blackgrass): 5% | pest or weed control at 62 g/ha (blackgrass; 62 g ai/ha, scale 0-100, read-out: Plant response rating, Blackgrass): 50% | pest or weed control at 125 g/ha (blackgrass; 125 g ai/ha, scale 0-100, read-out: Plant response rating, Blackgrass): 100% | pest or weed control at 250 g/ha (blackgrass; 250 g ai/ha, scale 0-100, read-out: Plant response rating, Blackgrass): 100% | pest or weed control at 16 g/ha (wild mustard; 16 g ai/ha, scale 0-100, read-out: Plant response rating, Mustard, Wild): 60% | pest or weed control at 31 g/ha (wild mustard; 31 g ai/ha, scale 0 to 100 (0 no effect, 100 complete control), read-out: Plant response rating, Mustard, Wild): 90% | pest or weed control at 62 g/ha (wild mustard; 62 g ai/ha, scale 0 to 100 (0 no effect, 100 complete control), read-out: Plant response rating, Mustard, Wild): 70% | pest or weed control at 125 g/ha (wild mustard; 125 g ai/ha, scale 0 to 100 (0 no effect, 100 complete control), read-out: Plant response rating, Mustard, Wild): 80% | pest or weed control at 250 g/ha (wild mustard; 250 g ai/ha, scale 0 to 100 (0 no effect, 100 complete control), read-out: Plant response rating, Mustard, Wild): 100% | pest or weed control at 125 g/ha (chickweed; 125 g ai/ha): 90% | pest or weed control at 250 g/ha (chickweed; 250 g ai/ha): 100%
